In publication PMC9986306, “Beyond CBD: Inhibitory effects of lesser studied phytocannabinoids on human voltage-gated sodium channels” (Frontiers in Physiology, 2023):

Legend:
6-Hz acute seizure model = tested on: 6-Hz acute seizure model; design: method as in Anderson et al., 2021b; conditions: monotherapy; ref Anderson et al., 2021b; cited from earlier work
[1] = biological target: T1, human NaV1.7 channel (SCN9A, CHO cells) (Homo sapiens, UniProt Q15858); assay: Planar patch-clamp, inhibition of peak sodium current (IC50 protocol); type: cell-based; conditions: mean ± SEM
T1 construct: expressed in transfected cells
Experimental: (§1) HEK293T cells stably expressing SCN1A or SCN2A and CHO cells stably expressing SCN8A or SCN9A were maintained as previously described ([Richards et al., 2018]; [Milligan et al., 2022]).
(§2) Patch-clamp recordings were made using a Patchliner® (Nanion Technologies, Munich, Germany) in the whole-cell configuration as previously described ([Richards et al., 2018]; [Milligan et al., 2022]). Briefly, cells were prepared in suspension at a density of 1 × 10^6-5 × 10^7 cells/mL. The external recording solution comprised (in mM): 140 NaCl, 4 KCl, 1 MgCl2, 2 CaCl2, 5 D-glucose, 10 HEPES, pH 7.4 with NaOH, ∼295 mOsm. The internal recording solution comprised (in mM): 50 CsCl, 60 CsF, 10 NaCl, 20 EGTA, 10 HEPES, pH 7.2 with CsOH, ∼285 mOsm. Medium single-hole planar NPC-16 chips with an average resistance of ∼2.5 MΩ were used. Chip and whole-cell capacitance were fully compensated, and 50% series resistance compensation applied. Recordings were acquired at 50 kHz with the low pass filter set to 10 kHz in PATCHMASTER (HEKA Instruments, NY, United States) and performed at 27°C. Offline analysis was performed using Microsoft Excel, MatLab R2019a (MathWorks) and GraphPad Prism 8 (Molecular Devices).
To determine half-maximal inhibitory concentrations (IC50), cells were held at −80 mV, stepped to −120 mV for 200 ms followed by 50 ms test depolarization to 0 mV every 2 s for 30 s in the presence of vehicle control (DMSO). The cells were then exposed to an individual phytocannabinoid (CBD, CBGA, CBDVA, CBG, CBCA or CBC) at concentrations between 0.1 and 100 μM, sequentially for 5 min. Currents for individual cells were averaged over 24 s periods directly before application and following a 5 min exposure of compound. Leak subtraction was applied before normalization of current amplitude. Normalized mean data were fit to the Hill equation.

[2] = tested on: Scn1a+/− mouse model of DS; design: method as in Anderson et al., 2021b; conditions: monotherapy, ref Anderson et al., 2021b; cited from earlier work
[3] = tested on: NaV1.1, NaV1.2, NaV1.6 and NaV1.7 channels; assay: Planar patch-clamp, IC50 values summarised across the four isoforms; type: cell-based, human; conditions: range over NaV1.1, NaV1.2, NaV1.6, NaV1.7; read-out: IC50 values determined here (range over isoforms)
Experimental: as §1
as §2, with “Devices). […]” for “Devices).”

T1 sequence (Q15858 whole entry): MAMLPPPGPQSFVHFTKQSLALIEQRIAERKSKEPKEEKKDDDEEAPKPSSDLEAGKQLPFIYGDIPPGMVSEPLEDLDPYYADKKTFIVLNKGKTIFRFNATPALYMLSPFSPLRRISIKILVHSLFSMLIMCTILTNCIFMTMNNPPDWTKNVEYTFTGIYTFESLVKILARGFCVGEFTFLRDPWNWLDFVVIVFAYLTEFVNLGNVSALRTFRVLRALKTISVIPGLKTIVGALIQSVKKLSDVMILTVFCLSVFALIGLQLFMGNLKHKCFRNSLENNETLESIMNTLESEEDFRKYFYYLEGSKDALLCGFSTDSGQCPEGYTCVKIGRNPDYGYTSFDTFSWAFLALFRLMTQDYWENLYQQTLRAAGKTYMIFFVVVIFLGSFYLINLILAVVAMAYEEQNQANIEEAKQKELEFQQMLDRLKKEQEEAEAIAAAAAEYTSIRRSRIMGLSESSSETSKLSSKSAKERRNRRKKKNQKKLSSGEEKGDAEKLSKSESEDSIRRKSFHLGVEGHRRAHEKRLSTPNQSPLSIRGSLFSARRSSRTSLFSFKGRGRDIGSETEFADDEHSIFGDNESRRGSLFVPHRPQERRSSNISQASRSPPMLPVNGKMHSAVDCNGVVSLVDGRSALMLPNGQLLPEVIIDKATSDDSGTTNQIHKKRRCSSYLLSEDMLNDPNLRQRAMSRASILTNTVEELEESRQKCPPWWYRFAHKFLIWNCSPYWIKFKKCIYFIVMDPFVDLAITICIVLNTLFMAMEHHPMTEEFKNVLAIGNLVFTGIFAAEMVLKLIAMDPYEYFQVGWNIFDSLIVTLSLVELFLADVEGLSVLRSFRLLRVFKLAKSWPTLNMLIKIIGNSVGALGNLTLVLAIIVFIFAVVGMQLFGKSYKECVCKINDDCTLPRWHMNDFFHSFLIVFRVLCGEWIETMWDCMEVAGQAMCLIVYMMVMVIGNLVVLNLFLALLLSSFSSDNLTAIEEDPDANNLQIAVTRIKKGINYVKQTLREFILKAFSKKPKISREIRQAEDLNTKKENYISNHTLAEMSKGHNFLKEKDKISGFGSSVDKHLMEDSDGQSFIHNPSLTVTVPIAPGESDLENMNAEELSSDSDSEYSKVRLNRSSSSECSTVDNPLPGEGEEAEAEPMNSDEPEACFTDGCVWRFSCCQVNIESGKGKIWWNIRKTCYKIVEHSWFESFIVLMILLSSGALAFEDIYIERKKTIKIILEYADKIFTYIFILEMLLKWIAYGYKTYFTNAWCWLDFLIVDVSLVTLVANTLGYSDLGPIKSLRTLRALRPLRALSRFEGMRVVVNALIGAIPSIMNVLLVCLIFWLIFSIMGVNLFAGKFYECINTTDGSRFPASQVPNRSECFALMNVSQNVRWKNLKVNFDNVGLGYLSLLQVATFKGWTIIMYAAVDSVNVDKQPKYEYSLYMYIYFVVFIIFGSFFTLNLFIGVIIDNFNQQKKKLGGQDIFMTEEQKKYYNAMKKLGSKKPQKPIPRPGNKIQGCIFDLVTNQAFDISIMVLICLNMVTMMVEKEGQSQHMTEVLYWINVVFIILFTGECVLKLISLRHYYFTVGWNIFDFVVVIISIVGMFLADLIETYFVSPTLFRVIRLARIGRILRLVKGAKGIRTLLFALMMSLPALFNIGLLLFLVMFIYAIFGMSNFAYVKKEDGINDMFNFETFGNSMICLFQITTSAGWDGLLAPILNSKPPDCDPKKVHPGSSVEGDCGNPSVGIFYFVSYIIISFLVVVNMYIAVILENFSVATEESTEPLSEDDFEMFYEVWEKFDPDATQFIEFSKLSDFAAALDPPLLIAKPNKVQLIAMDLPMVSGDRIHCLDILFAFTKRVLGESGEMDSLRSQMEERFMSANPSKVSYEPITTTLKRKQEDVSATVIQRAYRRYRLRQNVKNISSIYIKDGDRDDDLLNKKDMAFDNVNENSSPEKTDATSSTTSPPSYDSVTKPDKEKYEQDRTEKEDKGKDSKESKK

## CCCCCc1cc(O)c(C/C=C(\C)CCC=C(C)C)c(O)c1C(=O)O [CBGA, cannabigerolic acid]
6-Hz acute seizure model
  Effect in 6-Hz acute seizure model: proconvulsive effects
[1]; NaV1.7 concentration-response
  Slope (Hill slope coefficient): 2.5 ± 0.4
[1]; NaV1.7 peak current, 0.1–100 µM, 5 min exposure
  IC50: 16.4 ± 1.1 µM
[2]
  Effect on spontaneous seizures: proconvulsive effects
[3]
  IC50: 12 to 16.4 µM
